Test results published in patent publication US20200316156A1, “NASAL BALM FOR RELIEVING ALLERGIC RHINITIS SYMPTOMS” (priority 2019, published 2020).
Several values for one entry are separate records, joined by “and”; a condition that tells them apart may be missing. Equal values may be shown once. Where a name gives a salt, the structure may show the parent alone.

System: allergic rhinitis of BALB/c mice
Experiment: OVA-induced allergic rhinitis in BALB/c mice, sneeze number
Assay type: in vivo
Conditions: for Sneeze number, individual mouse: within 15 min after administration, mice No. 1-4, hydrochloride
Description: 1. Experimental objective: to study the effect of the nasal balm of the disclosure on the allergic rhinitis of BALB/c mice.
2 mg of OVA powder was weighed, dissolved with physiologic saline solution. The final volume was calibrated accurately to 14 mL. 3.5 mL of the OVA solution was pipetted into a 5 mL Eppendorf tube, followed by the addition of 0.5 mL of uniform aluminum hydroxide gel, and then the OVA solution was dropwise added. The mixture was shaken for 30 min, and then 0.2 mL of the resulting solution was injected to each mouse to induce the sensitization.
2 mg of OVA powder was weighed, dissolved with physiologic saline solution. The final volume was calibrated accurately to 14 mL.
The mice were quarantined, adaptively fed, and divided into four groups: normal group, model group, positive control group and test group. Each group had 4 mice labeled as No. 1, No. 2, No. 3 and No. 4, respectively. The rest two mice were as backup.
The model group, positive control group and test group were administered with OVA solution through abdominal cavity to induce sensitization. Each mouse was administered with 0.2 mL of OVA solution containing 25 μg of OVA and 1 mg of aluminum hydroxide. Normal group as a control was injected with physiological saline solution at a dosage of 0.2 mL per mouse, where the first injection was labeled as D0, and the second injection and the third injection were performed on D7 and D14, respectively.
After induction, the drugs were administrated to initiate sensitization. The test product was smeared on the noses of the mice in normal group 6 times each day. After application of the test product each day, 20 μL of physiological saline solution was dripped into the nasal cavity of the mice in normal group as a control, at a dosage of 10 μL per nostril. The physiological saline solution was smeared on the nose of the mice in model group 6 times each day. 5 μL of Levocabastine was dripped into the nasal cavity of the mice in positive control group 2 times each day, at a dosage of 2.5 μL per nostril. The test product was smeared on the noses of the mice in test group 6 times each day. After administration of the drugs each day, 20 μL of the OVA solution for sensitization was dripped into the nasal cavity of the mice in model group, positive control group and test group, respectively, at a dosage of 10 μL per nostril.
Daily administration was continued for 10 days from D20-D30. On D23, D27 and D30 (that is, the 3rd day, 7th day and 10th day after administration), the number of times mice sneezed in each group within 15 min after administration was counted.
Unpaired two-tailed t-test was used to analyze data for each group.

## C[C@@H]1CN([C@H]2CC[C@](C#N)(c3ccc(F)cc3)CC2)CC[C@]1(C(=O)O)c1ccccc1 [Levocabastine, Levocabastine hydrochloride]
3rd day of administration
  Sneeze number compared with the model group: decreased significantly
7th day of administration
  Sneeze number compared with the model group: no significant difference
10th day of administration
  Sneeze number compared with the model group: no significant difference
D23 (3rd day of administration)
  Sneeze number, individual mouse: 7 and 15 and 8 and 11
D23, group of 4 mice, model group 22.75 ± 1.50
  Sneeze number of mice, statistical data: 10.25 ± 3.59
D27 (7th day of administration)
  Sneeze number, individual mouse: 75 and 45 and 44 and 22
D27, group of 4 mice, model group 69.75 ± 17.08
  Sneeze number of mice, statistical data: 46.50 ± 21.76
D30 (10th day of administration)
  Sneeze number, individual mouse: 124 and 108 and 46 and 110
D30, group of 4 mice, model group 100.25 ± 14.13
  Sneeze number of mice, statistical data: 97.00 ± 34.74
